Consider two compounds from patent publication US7115597B2, “Tyrosine kinase inhibitors” (Merck & Co., Inc., priority 2000, dated 2006).

Counter-ions that a name gives are not always drawn. Some results are limits rather than exact numbers.

Take `N#Cc1cnc(Nc2cc(N3CCN(CC(=O)O)CC3)ncn2)s1` (as salt: TFA) [Compound 26-3, (4-{6-[(5-cyano-1,3-thiazol-2-yl)amino]pyrimidin-4-yl}piperazin-1-yl)acetic acid]: the melting point is 285 to 287 °C (dec.).
As to `c1ccc(-c2cnc(Nc3ccncn3)s2)cc1` [Compound 1-3, (5-Phenyl-thiazol-2-yl)-pyrimidin-4-yl-amine], the melting point is above 250 °C.
